ChEMBL document CHEMBL1811856 (J Med Chem, 2011)

How the values were obtained:
[1] = Displacement of [3H]SCH-23390 from dopamine D1 like receptor in porcine striatal membranes after 30 mins by scintillation counting; format: cell membranes, Sus scrofa, Striatum, Membrane
Sus scrofa = species on record: Sus scrofa; experiment: Selectivity ratio Ki for dopamine D2 like receptor in porcine striatal membranes to Ki for dopamine D1 like receptor in porcine striatal membranes; format: cell membranes
[2] = Displacement of [3H]spiperone from dopamine D2 like receptor in porcine striatal membranes after 30 mins by scintillation counting; format: cell membranes, Sus scrofa, Striatum, Membrane

SMILES | Ki [1] | Ratio Ki (Sus scrofa) | Ki [2]
C[C@H]1C[C@H]2NCc3ccccc3[C@@H]2c2cc(O)c(O)cc21 (racemic) | 0.92 µM | 3.9 | 3.63 µM
C[C@H]1Cc2cc(O)c(O)cc2[C@H]2c3ccccc3CN[C@@H]21 (racemic) | 6.54 µM | 1.3 | 8.67 µM
C[C@@H]1Cc2cc(O)c(O)cc2[C@H]2c3ccccc3CN[C@@H]21 | > 10 µM | < 0.74 | 7.38 µM
C[C@@H]1C[C@H]2NCc3ccccc3[C@@H]2c2cc(O)c(O)cc21 (racemic) | 0.27 µM | 20 | 5.53 µM
Oc1cc2c(cc1O)[C@H]1c3ccccc3CN[C@@H]1CC2 (racemic) [DIHYDREXIDINE] | – | – | 0.24 µM
